Measured values reported in ChEMBL document CHEMBL1152192, “Carbonic anhydrase inhibitors. Inhibition of the beta-class enzyme from the yeast Saccharomyces cerevisiae with anions” (Bioorg Med Chem Lett, 2008).

Key:
Carbonic anhydrase [1] = molecular target: T1, Carbonic anhydrase (Saccharomyces cerevisiae S288c, UniProt P53615); assay: Inhibition of Saccharomyces cerevisiae carbonic anhydrase by stopped-flow CO2 hydration assay
T1 sequence (P53615 whole entry): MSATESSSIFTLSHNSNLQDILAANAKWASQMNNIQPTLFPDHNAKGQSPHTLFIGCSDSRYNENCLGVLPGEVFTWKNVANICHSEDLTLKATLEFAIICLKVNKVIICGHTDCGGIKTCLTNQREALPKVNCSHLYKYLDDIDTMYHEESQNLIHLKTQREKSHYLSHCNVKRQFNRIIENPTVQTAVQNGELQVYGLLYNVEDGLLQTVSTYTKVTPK

Carbonic anhydrase [2] = molecular target: T2, Carbonic anhydrase (Candida albicans (strain SC5314 / ATCC MYA-2876) (Yeast), UniProt Q5AJ71); assay: Inhibition of Candida albicans carbonic anhydrase overexpressed in Escherichia coli BL21 (DE3) by CO2 hydration stopped-flow assay
T2 sequence (Q5AJ71 whole entry): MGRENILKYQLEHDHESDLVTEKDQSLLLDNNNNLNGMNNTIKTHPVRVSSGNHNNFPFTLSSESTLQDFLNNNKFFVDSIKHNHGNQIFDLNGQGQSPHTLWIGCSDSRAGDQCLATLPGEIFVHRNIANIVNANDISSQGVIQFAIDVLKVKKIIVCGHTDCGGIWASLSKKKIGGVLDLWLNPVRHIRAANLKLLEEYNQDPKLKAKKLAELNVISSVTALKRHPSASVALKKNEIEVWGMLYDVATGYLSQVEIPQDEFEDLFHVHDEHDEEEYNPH

Carbonic anhydrase [3] = molecular target: T1, Carbonic anhydrase; assay: Inhibition of Saccharomyces cerevisiae carbonic anhydrase overexpressed in Escherichia coli BL21 (DE3) by CO2 hydration stopped-flow assay

Row | Structure (SMILES) | Ki (Carbonic anhydrase [1]) [µM] | Ki (Carbonic anhydrase [2]) [µM] | Ki (Carbonic anhydrase [3]) [µM]
1 | CCOc1ccc2nc(S(N)(=O)=O)sc2c1 [ETHOXZOLAMIDE] | 16 | – | –
2 | OB(O)c1ccccc1 [PHENYLBORONIC ACID] | – | 30900 | 38200
3 | NS(=O)(=O)O [SULFAMATE] | – | 700 | 840
4 | NS(N)(=O)=O [SULFAMIDE] | – | 300 | 8.7
